Source: US11279944B2, “Of herbicide tolerance to 4-hydroxyphenylpyruvate dioxygenase (HPPD) inhibitors by down-regulation of HPPD expression in soybean” (BASF AGRICULTURAL SOLUTIONS SEED US LLC, priority 2017, dated 2022)

Tests used:
[1] = system: soybean plants transformed by pCPE826 (Pf-Evo41+HPPD-Gm RNAi); assay: Field trial of the T1 generation, herbicide tolerance; conditions: in vivo
Description: (§1) The above result was confirmed in a field trial of the T1 generation.

[2] = system: soybean plants transformed by pMLS0519 (Pf-KGEPHSVV); assay: as above; assay type: in vivo; conditions: Puerto Rico, among the most effective constructs
Description: as §1

SMILES: CS(=O)(=O)c1cc(C(F)(F)F)ccc1C(=O)c1cnoc1C1CC1 [Isoxaflutole, (5-cyclopropyl-4-isoxazolyl)[2-(methylsulfonyl)-4-(trifluoromethyl)phenyl]methanone]
- tolerance to HPPD inhibitor [1]: good tolerance
- tolerance to HPPD inhibitor [2]: good tolerance
